The experiment addresses T1, chicken gizzard smooth muscle myosin subfragment-1 chemically crosslinked to either cardiac or skeletal actin (Gallus gallus, UniProt P10587).
T1 construct: chicken gizzard smooth muscle myosin subfragment-1
Put plainly: Smooth muscle myosin ATPase dose response assay (pyruvate kinase/horseradish peroxidase/pyruvate oxidase-coupled). Format: biochemical. As to conditions: ATPase activity of crosslinked smooth muscle actomyosin (subfragment-1); amplex red fluorescence; 4 parameter fit; read-out: IC50 Arithmetic Mean. The method, then: Screening assays were performed using a pyruvate kinase and lactate dehydrogenase-coupled ATPase assay containing the following reagents: Potassium PIPES (50 mM), MgCl2 (3 mM), KCl (100 mM), ATP (0.15 mM), DTT (1 mM), BSA (0.1 mg/ml), NADH (0.5 mM), PEP (1.5 mM), pyruvate kinase (4 U/ml), lactate dehydrogenase (8 U/ml), and antifoam (50 ppm) (concentrations expressed are final assay concentrations). The pH was adjusted to 6.80 at 22 °C by addition of potassium hydroxide. Lead optimization assays were performed with a more sensitive pyruvate kinase/horseradish peroxidase/pyruvate oxidase-coupled ATPase assay containing the following reagents: Potassium PIPES (12 mM), MgCl2 (2 mM), KCl (100 mM), ATP (0.15 mM), BSA (0.05 mg/ml), potassium phosphate (2 mM), amplex red (0.1 mM), PEP (0.1 mM), pyruvate kinase (4 U/ml), horseradish peroxidase (0.5 U/ml), pyruvate oxidase (0.5 U/ml), and antifoam (50 ppm) (concentrations expressed are final assay concentrations). The pH was adjusted to 7.00 at 22 °C by addition of potassium hydroxide.
The protein components specific to this assay are chicken gizzard smooth muscle myosin subfragment-1 that has been chemically crosslinked to either cardiac or skeletal actin using an excess of 1-Ethyl-3-[3-dimethylaminopropyl]carbodiimide hydrochloride and N-hydroxysuccinimide. The exact concentration of the crosslinked smooth muscle myosin in the assay is determined empirically, by titration to achieve a desired rate of ATP hydrolysis. The concentration varies between protein preparations due to variations in the fraction of active molecules in each preparation.
Compound dose response assays are performed by first preparing a dilution series of test compound, each with an assay mixture containing potassium PIPES, MgCl2, KCl, ATP, BSA, potassium phosphate, amplex red, PEP, crosslinked smooth muscle actomyosin (subfragment-1), antifoam, and water. The assay is started by adding an equal volume of solution containing potassium Pipes, MgCl2, KCl, BSA, potassium phosphate, pyruvate kinase, horseradish peroxidase, pyruvate oxidase, antifoam, and water. ATP hydrolysis is monitored by measuring the fluorescence of amplex red (excitation at 480 nm, emission at 615 nm). The resulting dose response curve is fit by the 4 parameter equation y=Bottom+((Top-Bottom)/(1+((IC50/X)^Hill))). The IC50 is defined as the concentration at which ATPase activity is midway between the top and bottom of the dose response curve.
Regarding `C/C=C/c1ccc(C(=O)NCc2cccnc2CN)c(NCCc2cccc(F)c2)n1` [(6-((1E)prop-1-enyl)-2-{[2-(3-fluorophenyl)ethyl]amino}(3-pyridyl))-N-{[2-(aminomethyl)(3-pyridyl)]methyl}carboxamide], the IC50 (as a rule, the concentration that gives 50% inhibition) is 0.038 µM.

Take `CC(=O)N(CCO)c1ccc(C(=O)NCc2cccnc2)c(NCCc2cccc(F)c2)n1` [N-(6-{[2-(3-fluorophenyl)ethyl]amino}-5-[N-(3-pyridylmethyl)carbamoyl](2-pyridyl))-N-(2-hydroxyethyl)acetamide]: the IC50 turned out to be 53.4 µM. As for `Cc1cccc(CNC(=O)c2cc(Br)cnc2NCCc2cccc(F)c2)n1` [(5-bromo-2-{[2-(3-fluorophenyl)ethyl]amino}(3-pyridyl))-N-[(6-methyl(2-pyridyl))methyl]carboxamide], the IC50 stood at 17.7 µM. `NCc1cccc(CNC(=O)c2cc(-c3ccccn3)cnc2NCCc2cccc(F)c2)n1` [N-{[6-(aminomethyl)(2-pyridyl)]methyl}(2-{[2-(3-fluorophenyl)ethyl]amino}-5-(2-pyridyl)(3-pyridyl))carboxamide]: the IC50 is 16 µM. To `N=C(N)c1ccc(C(=O)NCc2cccnc2)c(NCCc2cccc(F)c2)n1` [6-{[2-(3-fluorophenyl)ethyl]amino}-5-[N-(3-pyridylmethyl)carbamoyl]pyridine-2-carboxamidine] belongs 6.62 µM. As for `COC(=O)c1ccc(C(=O)NCc2cccnc2)c(NCCc2cccc(F)c2)n1` [methyl 6-{[2-(3-fluorophenyl)ethyl]amino}-5-[N-(3-pyridylmethyl)carbamoyl]pyridine-2-carboxylate], the IC50 was 4.35 µM. To `Cn1cc(-c2cnc(NCCc3cccc(F)c3)c(C(=O)NCc3cccc(CN)n3)c2)cn1` [N-{[6-(aminomethyl)(2-pyridyl)]methyl}(2-{[2-(3-fluorophenyl)ethyl]amino}-5-(1-methylpyrazol-4-yl)(3-pyridyl))carboxamide] belongs 17.7 µM.

As to `CN(CCO)c1ccc(C(=O)NCc2cccnc2)c(NCCc2cccc(F)c2)n1` [(2-{[2-(3-fluorophenyl)ethyl]amino}-6-[(2-hydroxyethyl)methylamino](3-pyridyl))-N-(3-pyridylmethyl)carboxamide], the IC50 was determined as 45.4 µM. The figure for `O=C(NCc1cccnc1)c1ccc(NCc2ccncc2)nc1NCCc1cccc(F)c1` [(2-{[2-(3-fluorophenyl)ethyl]amino}-6-[(4-pyridylmethyl)amino](3-pyridyl))-N-(3-pyridylmethyl)carboxamide] is 34 µM; for `COCCCNc1ccc(C(=O)NCc2cccnc2)c(NCCc2cccc(F)c2)n1` [(2-{[2-(3-fluorophenyl)ethyl]amino}-6-[(3-methoxypropyl)amino](3-pyridyl))-N-(3-pyridylmethyl)carboxamide] it is 11 µM. For `COC(=O)c1cc(C#N)cnc1NCCc1cccc(F)c1` [methyl 5-cyano-2-{[2-(3-fluorophenyl)ethyl]amino}pyridine-3-carboxylate], the IC50 came to 14.9 µM.

As for `CN(C)C(=O)CCCNc1ccc(C(=O)NCc2cccnc2)c(NCCc2cccc(F)c2)n1` [4-[(6-{[2-(3-fluorophenyl)ethyl]amino}-5-[N-(3-pyridylmethyl)carbamoyl](2-pyridyl))amino]-N,N-dimethylbutanamide], the IC50 turned out to be 70.3 µM.

As for `O=C(NCc1cccnc1)c1ccc(NCc2cccnc2)nc1NCCc1cccc(F)c1` [(2-{[2-(3-fluorophenyl)ethyl]amino}-6-[(3-pyridylmethyl)amino](3-pyridyl))-N-(3-pyridylmethyl)carboxamide], the half-inhibitory concentration (IC50) stood at 5.61 µM. Regarding `N#Cc1cnc(NCCc2cccc(F)c2)c(C(=O)NCc2ccccn2)c1` [(5-cyano-2-{[2-(3-fluorophenyl)ethyl]amino}(3-pyridyl))-N-(2-pyridylmethyl)carboxamide], the IC50 was 12.7 µM. The figure for `CC(C)=Cc1ccc(C(=O)NCc2cccnc2)c(NCCc2cccc(F)c2)n1` [(2-{[2-(3-fluorophenyl)ethyl]amino}-6-(2-methylprop-1-enyl)(3-pyridyl))-N-(3-pyridylmethyl)carboxamide] is 0.347 µM; for `C/C=C/c1nc(NCCc2cccc(F)c2)c(C(=O)NCc2cccnc2)cc1Br` [(6-((1E)prop-1-enyl)-5-bromo-2-{[2-(3-fluorophenyl)ethyl]amino}(3-pyridyl))-N-(3-pyridylmethyl)carboxamide] it is 0.78 µM.

Source of the values: patent publication US7939548B2, “Certain chemical entities, compositions, and methods” (Cytokinetics, Inc., priority 2006, dated 2011).
